Laboratory results from patent US9890166B2, “Imidazopyrrolidine derivatives and their use in the treatment of disease” (NOVARTIS AG, priority 2013, dated 2018).

Columns and labels:
BRD4 (His-Brd4(44-477)) = BRD4 (His-Brd4(44-477)) (Homo sapiens (Human), UniProt O60885); experiment: TR-FRET in-vitro binding assay for BRD4; conditions: single determination or n ≧ 2 independent determinations, read-out: Biochemical IC50 BRD4
In short: (§1)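 His-tagged BRD2, BRD3 and BRD4 fragments tested by TR-FRET at 8 compound concentrations, with DMSO stocks at 10 mM. Read on EnVision after 35 min incubation at 30° C.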

BRD2 (His-Brd2(60-472)) = BRD2 (His-Brd2(60-472)) (Homo sapiens (Human), UniProt P25440); experiment: TR-FRET in-vitro binding assay for BRD2; conditions: single determination or n ≧ 2 independent determinations, read-out: Biochemical IC50 BRD2
Sequence of BRD2 (His-Brd2(60-472)) (P25440 60-472): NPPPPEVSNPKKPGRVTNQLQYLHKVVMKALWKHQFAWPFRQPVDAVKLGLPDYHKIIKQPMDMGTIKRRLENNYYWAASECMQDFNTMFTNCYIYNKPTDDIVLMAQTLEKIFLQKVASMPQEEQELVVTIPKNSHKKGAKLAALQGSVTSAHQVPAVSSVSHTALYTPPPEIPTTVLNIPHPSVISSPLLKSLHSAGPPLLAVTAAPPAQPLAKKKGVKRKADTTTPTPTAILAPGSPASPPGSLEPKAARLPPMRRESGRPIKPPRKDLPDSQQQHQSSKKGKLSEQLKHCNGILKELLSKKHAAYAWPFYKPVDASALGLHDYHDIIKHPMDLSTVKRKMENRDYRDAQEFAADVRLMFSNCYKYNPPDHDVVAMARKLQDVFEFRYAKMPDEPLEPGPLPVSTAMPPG
In short: as §1

BRD3 (His-Brd3(20-477)) = BRD3 (His-Brd3(20-477)) (Homo sapiens (Human), UniProt Q15059); experiment: TR-FRET in-vitro binding assay for BRD3; conditions: single determination or n ≧ 2 independent determinations, read-out: Biochemical IC50 BRD3
Sequence of BRD3 (His-Brd3(20-477)) (Q15059 20-477): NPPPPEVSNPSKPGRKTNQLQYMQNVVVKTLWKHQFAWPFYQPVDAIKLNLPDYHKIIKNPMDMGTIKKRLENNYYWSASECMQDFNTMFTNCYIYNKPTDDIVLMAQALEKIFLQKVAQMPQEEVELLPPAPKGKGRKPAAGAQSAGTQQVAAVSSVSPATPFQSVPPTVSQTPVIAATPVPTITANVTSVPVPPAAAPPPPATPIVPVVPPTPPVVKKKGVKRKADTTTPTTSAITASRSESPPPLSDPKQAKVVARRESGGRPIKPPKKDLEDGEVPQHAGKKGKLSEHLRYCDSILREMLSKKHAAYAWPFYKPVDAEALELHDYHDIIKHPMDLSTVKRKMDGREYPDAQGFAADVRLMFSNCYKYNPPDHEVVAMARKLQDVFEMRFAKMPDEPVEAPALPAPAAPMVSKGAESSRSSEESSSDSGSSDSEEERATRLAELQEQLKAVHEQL
In short: as §1

[1] = molecular target: CREBBP bromodomain (His-CREBBP(1081-1197)) (Homo sapiens (Human), UniProt Q92793); experiment: AlphaScreen in-vitro binding assay for CREBBP; conditions: single determination or n ≧ 2 independent determinations, read-out: Biochemical IC50 CREBBP
Sequence of CREBBP bromodomain (His-CREBBP(1081-1197)) (Q92793 1081-1197): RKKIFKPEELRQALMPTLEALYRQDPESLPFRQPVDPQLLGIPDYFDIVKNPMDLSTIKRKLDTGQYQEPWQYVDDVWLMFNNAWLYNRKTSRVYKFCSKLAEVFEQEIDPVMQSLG
In short: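 Detection used nickel-chelate acceptor plus streptavidin donor AlphaScreen beads, 1 h room temperature. Percent inhibition fitted by non-linear regression to IC50.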

[2] = molecular target: nuclear BRD4-NUT foci in HCC2494 NUT midline carcinoma cells (Homo sapiens, UniProt O60885); experiment: cell-based
THP-1 cells = experiment: Cell growth inhibition assay (CellTiter-Glo), THP-1; conditions: for GI50: Homo sapiens, THP-1, read-out: THP-1 GI50; for THP-1 TGI: THP-1 cells, total growth inhibition, CellTiter-Glo;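 as to all read-outs here: viability read as cellular ATP luminescence after 4 days, 3-fold dilution series from 10 µM, DMSO vehicle-treated cells taken as 100%, cell-free medium wells as −100%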
K-562 cells = experiment: Cell growth inhibition assay (CellTiter-Glo), K-562; conditions: for GI50: Homo sapiens, K562, read-out: K-562 GI50; for K-562 TGI: K-562 cells, total growth inhibition, CellTiter-Glo;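 as to all read-outs here: cellular ATP measured by luminescence after 4 days of exposure, 3-fold dilution series from 10 µM, DMSO vehicle-treated cells define 100%, cell-free medium wells −100%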
MV-4-11 cells = experiment: Cell growth inhibition assay (CellTiter-Glo), MV-4-11; conditions: for GI50: Homo sapiens, MV4-11, read-out: MV-4-11 GI50; for MV-4-11 TGI: MV-4-11 cells, total growth inhibition, CellTiter-Glo;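 as to all read-outs here: cellular ATP luminescence after 4 days, 3-fold dilution series from 10 µM top dose, vehicle (0.1% DMSO) set to 100%, cell-free medium set to −100%, day 0 corrected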

IC50 (BRD4 (His-Brd4(44-477))) [nM]	IC50 (BRD2 (His-Brd2(60-472))) [nM]	IC50 (BRD3 (His-Brd3(20-477))) [nM]	IC50 [1] [nM]	IC50 [2] [nM]	GI50 (THP-1 cells) [nM]	GI50 (K-562 cells) [nM]	GI50 (MV-4-11 cells) [nM]	Structure (SMILES)	THP-1 TGI (THP-1 cells) [nM]	K-562 TGI (K-562 cells) [nM]	MV-4-11 TGI (MV-4-11 cells) [nM]
< 11	16	< 11	> 37000	–	2	8.73	1.64	COc1ncccc1-c1nc2c(n1C(C)C)[C@@H](c1ccc(Cl)cc1)N(c1cc(C)c3nnn(C)c3n1)C2=O [Example 158, (R)-6-(4-chlorophenyl)-5-(3,7-dimethyl-3H-[1,2,3]triazolo[4,5-b]pyridin-5-yl)-1-isopropyl-2-(2-methoxypyridin-3-yl)-5,6-dihydropyrrolo[3,4-d]imidazol-4(1H)-one]	5.065	>10000	3.29
< 11	16	12	12600	–	12.1	40.5	5.86	COc1ncc(-c2nc3c(n2C(C)C)[C@@H](c2ccc(Cl)cc2)N(c2cc(C)c4nnc(C(F)F)n4c2)C3=O)c(OC)n1 [Example 159, (R)-6-(4-chlorophenyl)-5-(3-(difluoromethyl)-8-methyl-[1,2,4]triazolo[4,3-a]pyridin-6-yl)-2-(2,4-dimethoxypyrimidin-5-yl)-1-isopropyl-5,6-dihydropyrrolo[3,4-d]imidazol-4(1H)-one]	31.5	>10000	15.6
15	30	16	> 37000	–	6.09	75.2	5.99	Cc1cc(N2C(=O)c3nc(C4=CCOCC4)n(C(C)C)c3C2c2ccc(Cl)cc2)nn2c(C(F)F)nnc12 (centres unmarked) [Example 161, 6-(4-chlorophenyl)-5-(3-(difluoromethyl)-8-methyl-[1,2,4]triazolo[4,3-b]pyridazin-6-yl)-2-(3,6-dihydro-2H-pyran-4-yl)-1-isopropyl-5,6-dihydropyrrolo[3,4-d]imidazol-4(1H)-one]	13.65	>10000	13.65
35	63	53	1650	–	103	537	33.6	Cc1cc(N2C(=O)c3nc(C4=CCOCC4)[nH]c3[C@H]2c2ccc(Cl)cc2)cn2c(C)nnc12 [Example 167, (R)-6-(4-chlorophenyl)-2-(3,6-dihydro-2H-pyran-4-yl)-5-(3,8-dimethyl-[1,2,4]triazolo[4,3-a]pyridin-6-yl)-5,6-dihydropyrrolo[3,4-d]imidazol-4(1H)-one]	188.5	>10000	57.85
< 11	17	< 11	> 37000	–	5.65	30.8	2.99	COc1ncccc1-c1nc2c(n1C(C)C)[C@@H](c1ccc(Cl)cc1)N(c1cc(C)c3nnc(C(F)F)n3n1)C2=O [Example 168, (R)-6-(4-chlorophenyl)-5-(3-(difluoromethyl)-8-methyl-[1,2,4]triazolo[4,3-b]pyridazin-6-yl)-1-isopropyl-2-(2-methoxypyridin-3-yl)-5,6-dihydropyrrolo[3,4-d]imidazol-4(1H)-one]	18.9	>10000	7.7
19	25	33	> 37000	–	11.5	55.9	1.94	Cc1cc(N2C(=O)c3nc(C4CCN(C)CC4)n(C(C)C)c3C2c2ccc(Cl)cc2)nn2c(C)nnc12 (centres unmarked) [Example 169, 6-(4-chlorophenyl)-5-(3,8-dimethyl-[1,2,4]triazolo[4,3-b]pyridazin-6-yl)-1-isopropyl-2-(1-methylpiperidin-4-yl)-5,6-dihydropyrrolo[3,4-d]imidazol-4(1H)-one]	32.95	>10000	5.325

Further lines, the molecule ahead of its results:

Structure (SMILES)	IC50 (BRD4 (His-Brd4(44-477))) [nM]	IC50 (BRD2 (His-Brd2(60-472))) [nM]	IC50 (BRD3 (His-Brd3(20-477))) [nM]	IC50 [1] [nM]	IC50 [2] [nM]	GI50 (THP-1 cells) [nM]	GI50 (K-562 cells) [nM]	GI50 (MV-4-11 cells) [nM]	THP-1 TGI (THP-1 cells) [nM]	K-562 TGI (K-562 cells) [nM]	MV-4-11 TGI (MV-4-11 cells) [nM]
Cc1cc(N2C(=O)c3nc(C)n(C(C)C)c3C2c2ccc(Cl)cc2)cc2c1nnn2C (racemic) [Example 2, 6-(4-chlorophenyl)-5-(3,7-dimethyl-3H-benzo[d][1,2,3]triazol-5-yl)-1-isopropyl-2-methyl-5,6-dihydropyrrolo[3,4-d]imidazol-4(1H)-one]	20	33	15	8600	14.5	23.4	95.9	13.8	40.95	>10000	28.65
CC(C)n1c(-c2cnoc2)nc2c1C(c1ccc(Cl)cc1)N(c1ccc(=O)n(C)c1)C2=O (centres unmarked) [Example 19, 6-(4-chlorophenyl)-1-isopropyl-2-(isoxazol-4-yl)-5-(1-methyl-6-oxo-1,6-dihydropyridin-3-yl)-5,6-dihydropyrrolo[3,4-d]imidazol-4(1H)-one]	220	–	–	–	> 10000	–	–	–	–	–	–
Cc1noc(C)c1-c1nc2c(n1C(C)C)C(c1ccc(Cl)cc1)N(c1cc(C)c(=O)n(C)c1)C2=O (centres unmarked) [Example 27, 6-(4-chlorophenyl)-5-(1,5-dimethyl-6-oxo-1,6-dihydropyridin-3-yl)-2-(3,5-dimethylisoxazol-4-yl)-1-isopropyl-5,6-dihydropyrrolo[3,4-d]imidazol-4(1H)-one]	120	140	96	–	279	195	861	82.7	433	>10000	142
Cc1cc(N2C(=O)c3c(nc(C)n3C3CC3)C2c2ccc(Cl)cc2)cn2c(C)nnc12 (centres unmarked) [Example 115, 6-(4-chlorophenyl)-3-cyclopropyl-5-(3,8-dimethyl-[1,2,4]triazolo[4,3-a]pyridin-6-yl)-2-methyl-5,6-dihydropyrrolo[3,4-d]imidazol-4(3H)-one]	48	68	66	–	20.5	23.4	102	10.3	58.1	>10000	17.7
COc1ccc(-c2nc3c([nH]2)C(c2ccc(Cl)cc2)N(c2cc(OC)c4nnc(C)n4c2)C3=O)cn1 (centres unmarked) [Example 125, 6-(4-chlorophenyl)-5-(8-methoxy-3-methyl-[1,2,4]triazolo[4,3-a]pyridin-6-yl)-2-(6-methoxypyridin-3-yl)-5,6-dihydropyrrolo[3,4-d]imidazol-4(1H)-one]	–	–	–	34900	1950	2140	5290	809	3920	>10000	1120
COc1ncccc1-c1nc2c([nH]1)[C@@H](c1ccc(Cl)cc1)N(c1cc(C)c3nnc(C(F)F)n3c1)C2=O [Example 153, (R)-6-(4-chlorophenyl)-5-(3-(difluoromethyl)-8-methyl-[1,2,4]triazolo[4,3-a]pyridin-6-yl)-2-(2-methoxypyridin-3-yl)-5,6-dihydropyrrolo[3,4-d]imidazol-4(1H)-one]	13	25	23	28900	–	18.4	95	25.6	44.3	>10000	38.6
COc1ccc(-c2nc3c(n2C(C)C)[C@@H](c2ccc(Cl)cc2)N(c2cc(C)c4nnn(C)c4n2)C3=O)cn1 [Example 154, (R)-6-(4-chlorophenyl)-5-(3,7-dimethyl-3H-[1,2,3]triazolo[4,5-b]pyridin-5-yl)-1-isopropyl-2-(6-methoxypyridin-3-yl)-5,6-dihydropyrrolo[3,4-d]imidazol-4(1H)-one]	19	42	19	> 37000	–	4.68	21.4	3.64	12.2	>10000	8.305
COc1ncccc1-c1nc2c([nH]1)[C@@H](c1ccc(Cl)cc1)N(c1cc(C)c(=O)n(C)c1)C2=O [Example 156, (R)-6-(4-chlorophenyl)-5-(1,5-dimethyl-6-oxo-1,6-dihydropyridin-3-yl)-2-(2-methoxypyridin-3-yl)-5,6-dihydropyrrolo[3,4-d]imidazol-4(1H)-one]	25	32	29.5	260	–	43.4	122	25.4	99	>10000	51.35
